Test results as given in US20100190151A1 (priority 2003, published 2010).

Tested on: DNA polymerase
Conditions: surface-anchored primer/template DNA, stepwise reactions, FIG. 2(b); Cy5-dCTP detected by spFRET with Cy3-dUTP
Method: FIG. 2a(1) is an image of the slide surface: Annealed primer/template DNA molecules detected by Cy3 fluorescence from the labeled primer. Scale bar, 10 µm. […] FIG. 2a(3) is an image of the slide surface: Labeled nucleotide fluorescence after successful incorporation by DNA polymerase. Note; prior to the incorporation reaction, the primer fluorescence shown in FIG. 2a(1) was photo-bleached. After incubation of template DNA molecules with DNA polymerase and a labeled dNTP, the sequencing chamber was flushed to prevent fluorescent detection of unincorporated labeled dNTPs. […] FIG. 2a(5) is an overlay of the primer/template positions with the labeled nucleotide positions.
Observations of single-molecule fluorescence can be made using a conventional microscope equipped with total internal reflection (TIR) illumination. […] First, the surface of a quartz slide is chemically treated to specifically anchor template nucleic acid molecules while preventing non-specific binding of labeled dNTPs present in the sequencing reaction. A plastic flow cell is then attached to the surface of the slide to facilitate the exchange of buffers and reagents. Next, biotinylated oligonucleotides, serving as sequencing templates, are annealed to a fluorescently labeled primer. Template nucleic acid molecules are bound to the slide surface via streptavidin and biotin at a surface density low enough to resolve single nucleic acid molecules. The primed templates are detected via their fluorescent tags and their locations are recorded for future reference. After noting the location of each template nucleic acid molecule, their fluorescent tags are photo-bleached. Labeled dNTPs and polymerase (or polymerizing agent) are then washed in and out of the flow cell, one dNTP at a time, while the known locations of the template nucleic acid molecules are monitored for fluorescence, an indication that the primer annealed to the template nucleic acid molecule had been extended by one labeled nucleotide.

Compound | incorporation of labeled dNTP by DNA polymerase (selectivity and fidelity)
Cy3-dUTP | correctly incorporated
CCN1/C(=C/C=C/C2=[N+](CCCCCC(=O)NCC#Cc3cn(C4CC(O)C(COP(=O)([O-])OP(=O)([O-])OP(=O)([O-])[O-])O4)c(=O)nc3N)c3cc(S(=O)(=O)O)ccc3C2(C)C)C(C)(C)c2ccc(S(=O)(=O)[O-])cc21.[Li+].[Li+].[Li+].[Li+] (stereo not shown) [Cy3-dCTP] | correctly refusing to incorporate
Cy5-dCTP | correctly incorporated
Cy5-dUTP | correctly refusing to incorporate
